# Experimental data as given in patent publication US12545659B2, “IRAK degraders and uses thereof” (Kymera Therapeutics, Inc., priority 2019, dated 2026).
# Biological target: T1, IRAK4 (Homo sapiens, UniProt Q9NWZ3)
# T1 construct: endogenous in cells; host or cells: OCI-LY10
# T1 sequence (Q9NWZ3 1-460): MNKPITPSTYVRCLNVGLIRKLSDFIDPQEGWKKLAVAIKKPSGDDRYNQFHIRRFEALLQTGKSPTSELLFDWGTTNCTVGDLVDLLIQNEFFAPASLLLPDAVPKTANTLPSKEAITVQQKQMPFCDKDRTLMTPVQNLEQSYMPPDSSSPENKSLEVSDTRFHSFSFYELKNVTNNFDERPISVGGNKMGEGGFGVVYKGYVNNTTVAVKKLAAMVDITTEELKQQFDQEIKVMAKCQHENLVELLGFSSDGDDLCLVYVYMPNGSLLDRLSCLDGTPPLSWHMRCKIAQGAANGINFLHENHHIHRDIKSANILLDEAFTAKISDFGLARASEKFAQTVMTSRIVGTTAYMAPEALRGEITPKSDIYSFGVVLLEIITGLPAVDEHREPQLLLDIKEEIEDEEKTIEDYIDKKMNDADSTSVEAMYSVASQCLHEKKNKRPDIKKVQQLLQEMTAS
# Test: IRAK4 MSD Degradation in OCI-LY10
# Type: cell-based
# Details: OCI-LY10 cells, 4 hrs incubation, read-out: IRAK4 degradation in OCI-LY10 at 4 hrs: DC50
# How it was run: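 OCI-LY10 cells treated with 8-dose, 1:3 dilution series (top final 1 to 10 μM) for 4 to 24 h at 37 °C, 5% CO2. Lysate IRAK4 quantified by MSD sandwich immunoassay (mouse 2H9 capture, rabbit Y279 detection, SULFO-TAG anti-rabbit); DC50 from three-parameter logistic fit.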
row,SMILES,DC50
1,COc1cc2nn([C@H]3CC[C@H](CN4CCC(c5cccc6c5n(C)c(=O)n6C5CCC(=O)NC5=O)CC4)CC3)cc2cc1NC(=O)c1ccncn1 (stereo partly drawn) [I-324],< 50 nM
2,Cn1c(=O)n(C2CCC(=O)NC2=O)c2cccc(CCCC3CCN(C[C@H]4CC[C@H](n5cc6cc(NC(=O)c7cccc(C(F)(F)F)n7)c(N7C[C@@H]8C[C@H]7CO8)cc6n5)CC4)CC3)c21 (stereo partly drawn) [I-154],50 to 100 nM
3,CN(C[C@H]1CC[C@H](n2cc3cc(NC(=O)c4ccccn4)c(C(C)(C)O)cc3n2)CC1)C1CCN(Cc2cccc3c2n(C)c(=O)n3C2CCC(=O)NC2=O)CC1 (stereo partly drawn) [I-54],50 to 100 nM
4,Cn1c(=O)n(C2CCC(=O)NC2=O)c2cccc(OCC3CCN(C[C@H]4CC[C@H](n5cc6cc(NC(=O)c7cccc(C(F)(F)F)n7)c(C(F)F)cc6n5)CC4)CC3)c21 (stereo partly drawn) [I-115],< 50 nM
5,CN(C[C@H]1CC[C@H](n2cc3cc(NC(=O)c4cccc(C(F)(F)F)n4)c(C(C)(C)O)cc3n2)CC1)C1CCN(c2ccc3c(c2)n(C2CCC(=O)NC2=O)c(=O)n3C)CC1 (stereo partly drawn) [I-83],500 to 1000 nM
6,COc1cc2nn([C@H]3CC[C@H](CN4[C@@H]5CC[C@H]4CN(CCc4cccc6c4n(C)c(=O)n6C4CCC(=O)NC4=O)C5)CC3)cc2cc1NC(=O)c1cccc(C(F)(F)F)n1 (stereo partly drawn) [I-133],< 50 nM
7,Cn1c(=O)n(C2CCC(=O)NC2=O)c2ccc(N3CCN(C[C@H]4CC[C@H](n5cc6cc(NC(=O)c7cccc(C(F)(F)F)n7)c(C(F)F)cc6n5)CC4)CC3)cc21 (stereo partly drawn) [I-149],< 50 nM
8,COc1cc2nn([C@H]3CC[C@H](C(=O)N(C)C4CCN(Cc5cccc6c5n(C)c(=O)n6C5CCC(=O)NC5=O)CC4)CC3)cc2cc1NC(=O)c1cccc(C(F)(F)F)n1 (stereo partly drawn) [I-293],50 to 100 nM
9,"Cn1c(=O)n(C2CCC(=O)NC2=O)c2cccc([C@H]3CC[C@@H](N(C)C[C@H]4CC[C@H](n5cc6cc(NC(=O)c7cccc(C(F)(F)F)n7)c(C(F)F)cc6n5)CC4)CC3)c21 (single isomer, unassigned) [I-165, N-[6-(difluoromethyl)-2-[4-[[[4-[1-(2,6-dioxo-3-piperidyl)-3-methyl-2-oxo-benzimidazol-4-yl]cyclohexyl]-methyl-amino]methyl]cyclohexyl]indazol-5-yl]-6-(trifluoromethyl)pyridine-2-carboxamide]",< 50 nM

# Now from value to compound:
row,DC50,SMILES
1,< 50 nM,Cn1c(=O)n(C2CCC(=O)NC2=O)c2cccc(CCC3CC4(CCN(C[C@H]5CC[C@H](n6cc7cc(NC(=O)c8cnn9cccnc89)c(C(C)(C)O)cc7n6)CC5)CC4)C3)c21 (stereo partly drawn) [I-105]
2,50 to 100 nM,COc1cc2nn([C@H]3CC[C@H](CN4CCN(c5cccc6c5n(C)c(=O)n6C5CCC(=O)NC5=O)CC4)CC3)cc2cc1NC(=O)c1cccc(C(C)(C)F)n1 (stereo partly drawn) [I-167]
3,< 50 nM,Cn1c(=O)n(C2CCC(=O)NC2=O)c2cccc(CC3CCN(C[C@H]4CC[C@H](n5cc6cc(NC(=O)c7cccc(C(F)(F)F)n7)c(C(F)F)cc6n5)CC4)CC3)c21 (stereo partly drawn) [I-72]
4,500 to 1000 nM,CN(CC#Cc1ccc2c(c1)n(C)c(=O)n2C1CCC(=O)NC1=O)C[C@H]1CC[C@H](n2cc3cc(NC(=O)c4cccc(C(F)(F)F)n4)c(C(F)F)cc3n2)CC1 (stereo partly drawn) [I-148]
5,50 to 100 nM,COc1cc2nn([C@H]3CC[C@H](CN4CCN(c5ccc6c(c5)n(C)c(=O)n6C5CCC(=O)NC5=O)CC4)CC3)cc2cc1NC(=O)c1cccc(C(C)(C)F)n1 (stereo partly drawn) [I-156]
6,< 50 nM,COc1cc2nn([C@H]3CC[C@H](CN4CCN(c5ccc6c(c5)n(C)c(=O)n6C5CCC(=O)NC5=O)CC4)CC3)cc2cc1NC(=O)c1cccc(C(F)(F)F)n1 (stereo partly drawn) [I-102]
7,< 50 nM,Cn1c(=O)n(C2CCC(=O)NC2=O)c2cccc(NC3CC4(CCN(C[C@H]5CC[C@H](n6cc7cc(NC(=O)c8cccc(C(F)(F)F)n8)c(C(C)(C)O)cc7n6)CC5)CC4)C3)c21 (stereo partly drawn) [I-153]
8,50 to 100 nM,Cn1c(=O)n(C2CCC(=O)NC2=O)c2cccc(CCC3CC4(CCN(C[C@H]5CC[C@H](n6cc7cc(NC(=O)c8ccccn8)c(C(C)(C)O)cc7n6)CC5)CC4)C3)c21 (stereo partly drawn) [I-81]
9,< 50 nM,Cn1c(=O)n(C2CCC(=O)NC2=O)c2cccc(CN3CC4(CCN(C(=O)[C@H]5CC[C@H](n6cc7cc(NC(=O)c8cccc(C(F)(F)F)n8)c(C(C)(C)O)cc7n6)CC5)CC4)C3)c21 (stereo partly drawn) [I-44]
10,< 50 nM,COc1cc2nn([C@H]3CC[C@H](CN4C[C@H]5C[C@@H]4CN5c4cccc5c4n(C)c(=O)n5C4CCC(=O)NC4=O)CC3)cc2cc1NC(=O)c1cccc(C(F)(F)F)n1 (stereo partly drawn) [I-281]

# Same assay, conditions: OCI-LY10 cells, 24 hrs incubation, read-out: IRAK4 degradation in OCI-LY10 at 24 hrs: DC50
row,SMILES,DC50
1,COc1cc2nn([C@H]3CC[C@H](CN4CCC5(CC4)CC(CNc4cccc6c4C(=O)N(C4CCC(=O)NC4=O)C6=O)C5)CC3)cc2cc1NC(=O)c1cccc(C(F)F)n1 (stereo partly drawn) [I-209],< 50 nM
2,COc1cc2nc([C@H]3CC[C@H](CN4CCC5(CC4)CC(CCNc4cccc6c4C(=O)N(C4CCC(=O)NC4=O)C6=O)C5)CC3)oc2cc1NC(=O)c1cccc(C(F)(F)F)n1 (stereo partly drawn) [I-137],100 to 500 nM
3,"CN(CCCO[C@H]1C[C@H](Nc2cccc3c2C(=O)N(C2CCC(=O)NC2=O)C3=O)C1)C[C@]1(C)Cc2cc(NC(=O)c3cccc(C(F)(F)F)n3)c(N3CCOCC3)cc2O1 (stereo partly drawn) [I-330, N-[(2S)-2-[[3-[3-[[2-(2,6-dioxo-3-piperidyl)-1,3-dioxo-isoindolin-4-yl]amino]cyclobutoxy]propyl-methyl-amino]methyl]-2-methyl-6-morpholino-3H-benzofuran-5-yl]-6-(trifluoromethyl)pyridine-2-carboxamide]",500 to 1000 nM
4,COc1cc2nn([C@H]3CC[C@H](CN(C)[C@H]4CC[C@@]5(CC4)C[C@@H](CNc4cccc6c4C(=O)N(C4CCC(=O)NC4=O)C6=O)C5)CC3)cc2cc1NC(=O)c1cccc(C(F)(F)F)n1 (stereo partly drawn) [I-317],50 to 100 nM
5,CN(C[C@H]1CC[C@H](n2cc3cc(NC(=O)c4cccc(C(F)(F)F)n4)c(C(C)(C)O)cc3n2)CC1)[C@H]1CC[C@]2(CC1)C[C@H](Nc1cccc3c1C(=O)N(C1CCC(=O)NC1=O)C3=O)C2 (stereo partly drawn) [I-124],< 50 nM
6,COc1cc2nn([C@H]3CC[C@H](CN4CCC5(CC4)CC(CNc4cccc6c4C(=O)N(C4CCC(=O)NC4=O)C6=O)C5)CC3)cc2cc1NC(=O)c1coc(-c2ccnc(C)c2)n1 (stereo partly drawn) [I-316],50 to 100 nM
7,"COc1cc2nn([C@H]3CC[C@H](CN4CCC5(CC4)CC(CCNc4cccc6c4C(=O)N(C4CCC(=O)NC4=O)C6=O)C5)CC3)cc2cc1NC(=O)c1cccc(C(C)(F)F)n1 (single isomer, unassigned) [I-128]",50 to 100 nM

# Other lines, results leading:
row,DC50,SMILES
1,50 to 100 nM,CN(CCCO[C@H]1C[C@H](Nc2cccc3c2C(=O)N(C2CCC(=O)NC2=O)C3=O)C1)C[C@H]1CC[C@H](n2cc3cc(NC(=O)c4cccc(S(F)(F)(F)(F)F)n4)c(C(C)(C)O)cc3n2)CC1 (stereo partly drawn) [I-290]
2,< 50 nM,"COc1cc2nn([C@H]3CC[C@H](CN4CC5(CC(CCNc6cccc7c6C(=O)N([C@H]6CCC(=O)NC6=O)C7=O)C5)C4)CC3)cc2cc1NC(=O)c1cccc(C(C)(F)F)n1 [I-255, 6-(1,1-Difluoroethyl)-N-[2-[4-[[6-[2-[[2-[(3S)-2,6-dioxo-3-piperidyl]-1,3-dioxo-isoindolin-4-yl]amino]ethyl]-2-azaspiro[3.3]heptan-2-yl]methyl]cyclohexyl]-6-methoxy-indazol-5-yl]pyridine-2-carboxamide]"
3,500 to 1000 nM,CC(C)(O)c1cc2nc([C@H]3CC[C@H](CN4CCC5(CC4)CC(CCNc4cccc6c4C(=O)N(C4CCC(=O)NC4=O)C6=O)C5)CC3)oc2cc1NC(=O)c1cccc(C(F)(F)F)n1 (stereo partly drawn) [I-182]
4,50 to 100 nM,CC(C)(O)c1cc2nc(N3CCC(CN4CCC5(CC4)CC(Nc4cccc6c4C(=O)N(C4CCC(=O)NC4=O)C6=O)C5)CC3)oc2cc1NC(=O)c1cccc(C(F)(F)F)n1 (stereo not drawn) [I-184]
5,50 to 100 nM,COc1cc2nn([C@H]3CC[C@H](CN4CCC5(CC4)CC(CCNc4cccc6c4C(=O)C(C4CCC(=O)NC4=O)C6=O)C5)CC3)cc2cc1NC(=O)c1ccnc(C)n1 (stereo partly drawn) [I-120]
6,50 to 100 nM,COc1cc2nn([C@H]3CC[C@H](CN4CCC(O[C@H]5C[C@H](Nc6cccc7c6C(=O)N(C6CCC(=O)NC6=O)C7=O)C5)CC4)CC3)cc2cc1NC(=O)c1cccc(C(C)(C)F)n1 (stereo partly drawn) [I-305]
7,50 to 100 nM,CC(C)(O)c1cc2nn([C@H]3CC[C@H](CN4CCC5(CC4)CC(CNc4cccc6c4C(=O)N(C4CCC(=O)NC4=O)C6=O)C5)CC3)cc2cc1NC(=O)c1cccc(C(C)(C)F)n1 (stereo partly drawn) [I-251]
8,< 50 nM,Cc1cccc(C(=O)Nc2cc3cn([C@H]4CC[C@H](CN5CCC(COCCCNc6cccc7c6C(=O)N(C6CCC(=O)NC6=O)C7=O)CC5)CC4)nc3cc2C(C)(C)O)n1 (stereo partly drawn) [I-304]
9,50 to 100 nM,COc1cc2nn(C3CCC(CN4CC5(CCC(CNc6cccc7c6C(=O)N(C6CCC(=O)NC6=O)C7=O)CC5)C4)CC3)cc2cc1NC(=O)c1cccc(C(C)(F)F)n1 (stereo not drawn) [I-122]
10,50 to 100 nM,Cn1c2cc(NC(=O)c3cccc(C(F)(F)F)n3)c(C(C)(C)O)cc2nc1[C@H]1CC[C@H](CN2CC3(CC(CCNc4cccc5c4C(=O)N(C4CCC(=O)NC4=O)C5=O)C3)C2)CC1 (stereo partly drawn) [I-287]
11,50 to 100 nM,COc1cc2nn([C@H]3CC[C@H](CN4CCC5(CC4)CC(Nc4cccc6c4C(=O)N(C4CCC(=O)NC4=O)C6=O)C5)CC3)cc2cc1NC(=O)c1cccc(C(C)(C)F)n1 (stereo partly drawn) [I-78]
12,< 50 nM,COc1cc2nc([C@H]3CC[C@H](CN4CCC5(CC4)CC(Nc4cccc6c4C(=O)N(C4CCC(=O)NC4=O)C6=O)C5)CC3)oc2cc1NC(=O)c1cnn2cccnc12 (stereo partly drawn) [I-321]
13,50 to 100 nM,COc1cc2nn([C@H]3CC[C@H](CN4CCC5(CCC(Nc6cccc7c6C(=O)N(C6CCC(=O)NC6=O)C7=O)CC5)CC4)CC3)cc2cc1NC(=O)c1cccc(C(C)(C)F)n1 (stereo partly drawn) [I-88]
